Measurements reported in the NIST ThermoML archive (doi:10.1021/je8006309).
± gives the expanded uncertainty stated by the source.

Assays:
[1] = for Normal melting temperature: Crystal
[2] = Molar enthalpy of transition or fusion; settings: Crystal; DSC

Normal melting temperature [1] [°C]	Normal melting temperature ([1]; DTA) [°C]	Glass transition temperature ([1]; Glass, DTA) [°C]	Molar enthalpy of transition or fusion [2] [kcal/mol]	Compound
-14.00 ± 0.93				CCCCCCCCO [octan-1-ol]
	51.71 ± 0.39	-57.3 ± 3	3.42 ± 0.0908	CCCC[n+]1ccc(C)cc1.Cc1ccc(S(=O)(=O)[O-])cc1 [N-butyl-4-methylpyridinium tosylate]
0.00 ± 0.93				O [water]
7.36 ± 0.93				CCCCCCCCCCO [decan-1-ol]
	5.14 ± 0.39			c1ccccc1 [benzene]
